The results in this text go back to patent publication US4870081A (priority 1986, dated 1989).

In test [1] the target is muscarinic receptors (rat cerebral cortex). As to the kind of experiment: Radio ligand binding: displacement of the muscarinic agonist 3H-OXO-M (3H-Oxotremorine-M). Further details: species or system Hooded Lister rats. As to conditions: 2 nM 3H-OXO-M, 2 mM magnesium chloride, 37° C., 30 min.
Test [2] has the same target. It is filed as binding, Hooded Lister rats. As to conditions: 0.27 nM 3H-QNB, 37° C., 30 min.

Structures are written as SMILES. Counter-ions that a name gives are not always drawn. Like-named read-outs stand apart in the source and are kept apart here.

For `COC(=O)C1=CC2CCCN(C1)C2` (racemic) [E8, (±) Methyl 1-azabicyclo[3.3.1]non-3-en-3-yl carboxylate hydrochloride], the half-maximal inhibitory concentration (IC50) turned out to be 118 nM in test [1] and 4100 nM in test [2].

On to `CC(=O)O[C@@H]1C[C@H]2CCCN(C2)C1` (relative stereo) [E1, (±) exo-1-Azabicyclo[3.3.1]non-3-yl acetate hydrochloride], for which the IC50 was determined as 81 nM in test [1] and 3900 nM in test [2].

Take `CCO[C@@H]1C[C@H]2CCCN(C2)C1` (relative stereo) [E2, (±) exo-3-Ethoxy-1-azabicyclo[3.3.1]nonane oxalate]: the half-maximal inhibitory concentration (IC50) stood at 210 nM in test [1] and 6500 nM in test [2].

With `NC(=O)O[C@@H]1C[C@H]2CCCN(C2)C1` (relative stereo) [E3, (±) exo-1-Azabicyclo[3.3.1]non-3-yl carbamate hydrochloride], the results for the IC50 in test [1] and in test [2] were 103 nM and 36000 nM, respectively.

As to `COC(=O)[C@@H]1C[C@H]2CCCN(C2)C1` (relative stereo) [E4, (±) exo-Methyl 1-azabicyclo[3.3.1]non-3-yl carboxylate oxalate], the IC50 in test [1] stood at 81 nM; in test [2] it was 3900 nM.

With `COC(=O)[C@@H]1C[C@H]2CCCCN(C2)C1` (relative stereo) [E5, (±) exo-Methyl 1-azabicyclo[4.3.1]dec-8-yl carboxylate oxalate], the IC50 in test [1] amounted to 153 nM; in test [2] it was 3200 nM.

Regarding `CC(=O)O[C@H]1CN2CCC[C@H]1C2` (relative stereo) [E6, (±) exo-1-Azabicyclo[3.2.1]oct-6-yl acetate hydrochloride], the 50% inhibitory concentration (IC50) in test [1] came to 82 nM; in test [2] it was 27000 nM.

In the case of `COC(=O)[C@H]1CN2CCC[C@H]1C2` (relative stereo) [E7, (±) exo-Methyl 1-azabicyclo[3.2.1]oct-6-yl carboxylate hydrochloride], the half-maximal inhibitory concentration (IC50) in test [1] was determined as 510 nM; in test [2] it was 65000 nM.

For `COC[C@@H]1C[C@H]2CCCN(C2)C1` (relative stereo) [E9, (±) exo-3-Methoxymethyl-1-azabicyclo[3.3.1]nonane oxalate salt], the IC50 in test [1] was determined as 1300 nM; in test [2], 38000 nM.

For the molecule `C#CCOC(=O)[C@@H]1C[C@H]2CCCN(C2)C1` (relative stereo) [E10, (±) exo-Propargyl 1-azabicyclo[3.3.1]non-3-yl-carboxylate oxylate salt], the half-inhibitory concentration (IC50) was 40 nM in test [1] and 510 nM in test [2].

In the case of `CNC(=O)O[C@@H]1C[C@H]2CCCN(C2)C1` (relative stereo) [E11, (±) exo-1-Azabicyclo[3.3.1]non-3-yl-N-methylcarbamate hydrochloride salt], the IC50 in test [1] worked out at 460 nM; in test [2], 5200 nM.

`CC(=O)O[C@H]1CN2CC[C@H]1C2` (relative stereo) [E12, (±) exo-1-Azabicyclo[2.2.1]hept-3-yl acetate oxalate salt]: the values for the concentration for half-maximal inhibition (IC50) in test [1] and in test [2] were 175 nM and 46000 nM, respectively.

With `CCO[C@H]1CN2CC[C@H]1C2` (relative stereo) [E13, (±) exo-3-Ethoxy-1-azabicyclo[2.2.1]heptane oxalate salt], the IC50 was 510 nM in test [1] and 54000 nM in test [2].

Turning to `CC(=O)O[C@@H]1C[C@H]2CCN(C2)C1` (relative stereo) [E14, (±) exo-1-Azabicyclo[3.2.1]oct-3-yl acetate hydrochloride salt], the IC50 in test [1] was 38 nM; in test [2], 14000 nM.

Regarding `COC(=O)[C@@H]1C[C@H]2CCN(C2)C1` (relative stereo) [E15, (±) exo-Methyl-1-azabicyclo[3.2.1]oct-3-yl carboxylate hydrochloride], the concentration for half-maximal inhibition (IC50) stood at 80 nM in test [1] and 11000 nM in test [2].

In the case of `COC(=O)[C@H]1CN2CC[C@H]1C2` (relative stereo) [E16, (±) exo-Methyl 1-azabicyclo[2.2.1]hept-3-yl carboxylate oxalate salt], the half-maximal inhibitory concentration (IC50) in test [1] is 190 nM; in test [2] it was 60000 nM.

On to `CCC(=O)O[C@H]1CN2CCC[C@H]1C2` (relative stereo) [E17, (±) exo-1-Azabicyclo[3.2.1]oct-6-yl propionate hydrochloride], for which the IC50 was determined as 410 nM in test [1] and 7300 nM in test [2].

As to `CCCO[C@H]1CN2CCC[C@H]1C2` (relative stereo) [E18, (±) exo-6-n-Propoxy-1-azabicyclo[3.2.1]octane hydrochloride], the half-inhibitory concentration (IC50) in test [1] came to 630 nM; in test [2] it was 15500 nM.

Turning to `CCO[C@H]1CN2CCC[C@H]1C2` (relative stereo) [E19, (±) exo-6-Ethoxy-1-azabicycl9[3.2.1]octane hydrochloride], the values for the IC50 in test [1] and in test [2] were 460 nM and 64000 nM, respectively.

For `CNC(=O)O[C@H]1CN2CCC[C@H]1C2` (relative stereo) [E20, (±) exo-1-Azabicyclo[3.2.1]oct-6-yl-N-methylcarbamate oxalate salt], the IC50 in test [1] stood at 1900 nM; in test [2], 42000 nM.

Turning to `CCC(=O)O[C@@H]1C[C@H]2CCCN(C2)C1` (relative stereo) [E21, (±) exo-1-Azabicyclo[3.3.1]non-3-yl propionate hydrochloride salt], the results for the half-inhibitory concentration (IC50) in test [1] and in test [2] were 367 nM and 1000 nM, respectively.

As for `CO[C@@H]1C[C@H]2CCCN(C2)C1` (relative stereo) [E22, (±) exo-3-Methoxy-1-azabicyclo[3.3.1]nonane oxalate salt], the IC50 in test [1] was determined as 5000 nM; in test [2], 170000 nM.

Consider `CCCO[C@@H]1C[C@H]2CCCN(C2)C1` (relative stereo) [E23, (±) exo-3-n-Propoxy-1-azabicyclo[3.3.1]nonane oxalate salt], for which the concentration for half-maximal inhibition (IC50) is 160 nM in test [1] and 1200 nM in test [2].

As for `CN(C)C(=O)O[C@@H]1C[C@H]2CCCN(C2)C1` (relative stereo) [E24, (±) exo-1-Azabicyclo[3.3.1]non-3-yl-N,N-dimetnyl-carbamate hydrochloride], the IC50 amounted to 255 nM in test [1] and 1800 nM in test [2].

`CCOC(=O)[C@@H]1C[C@H]2CCCN(C2)C1` (relative stereo) [E25, (±) exo-Ethyl 1-azabicyclo[3.3.1]non-3yl carboxylate oxalate salt]: the results for the IC50 in test [1] and in test [2] were 65 nM and 620 nM, respectively.

The term IC50 denotes the concentration that gives 50% inhibition. The low end stands for higher potency, the high end for lower potency.
